What was measured:
p21 = p21 level by Western blot in PC-3 and LNCaP cells; format: cell-based, human
Protocol: (§1) Figure 4 Cell Cycle analysis in 8c-treated prostate cancer cells. (A) PC-3 and LNCaP cells were treated with compound 8c for 24 hours and cell cycle analysis was analyzed by flow cytometry using Propidium Iodide (PI). Percentage of cells in subG0, G1, S, and G2/M phases is indicated in the histogram. (B) Levels of Cyclin D1, p-p53, p53, p21 and cleaved Caspase 3 (17 kDa fragment) were determined by Western blot. Upper panel, representative Western blot of two different experiments. β-tubulin (β-Tub) serves as a loading control. […]
(§2) Cyclin D1 activity is modulated by several inhibitors such as p21 which negatively regulate cell cycle progression by interacting with cyclin dependent kinases (cdks). […] To further study the role of compound 8c in cell cycle, we determined the expression of p21, p53 and the levels of cleaved caspase 3 in the prostate cells. P53 was only determined in LNCaP cells since PC-3 cells are p53-negative[40].
(§3) Cells were lysed in Lysis buffer (50 mM Tris pH 7.4, 0.8 M NaCl, 5 mM MgCl2, 0.1% Triton X-100) containing Protease Inhibitor and Phosphatase inhibitor Cocktails (Roche, Basel, Switzerland). Protein concentrations were measured by BioRad™ protein assay kit (Richmond, CA, USA). […] Films were analyzed by densitometry. […]

p53 = p53 and p-p53 level by Western blot in LNCaP cells; format: cell-based, human
Protocol: as §1, §2, §3

## O=C1Nc2ccccc2C1(F)Cc1ccc(-c2ccccc2)o1 (centres unmarked) [Compound 8c, 3-fluoro-3-((5-phenylfuran-2-yl)methyl)indolin-2-one]
p21
  p21 protein level: remarkably increase in p21 protein
p53
  total and phosphorylated p53: increase in the total and phosphorylated forms of p53

Source: publication PMC5847527, “Identification of a novel 2-oxindole fluorinated derivative as in vivo antitumor agent for prostate cancer acting via AMPK activation” (Scientific Reports, 2018)
